“Also recorded” adds a separate entry of the source.
Tested on: primary human renal mesangial cells
Assay: Inhibition of anti-Tn CICs-stimulated mesangial cell proliferation (Ki-67)
Format: cell-based
Conditions: 30 min at RT
Experimental: […] of serum was mixed with […] of Tn(+)matrix beads or mock beads overnight at 4° C. (10 rpm). Supernatant was collected after pelleting the beads at 500×g for 30 sec at 4° C. After two rounds of such sequential anti-Tn CICs immunodepletion (serum-ID) and its control (serum-Mock), collected serum was filtered by syringe filter unit (Cat #SLHP033RS, Millipore Sigma) before use. Cells were cultured at ~90% confluency in 96-well plate, and starved in Mesangial cell media (Cat #4201) with 0.5% FBS (Cat #0010) and 0.05× mesangial cell growth supplement (MsCGS, Cat #4252) from ScienCell for 24 h at 37° C. prior to stimulation. Cells were stimulated with 5% serum-Mock, 5% serum-ID with or without exogenous anti-Tn CICs (50 ng/[…]/well, total) for 24 h at 37° C. incubator. Cells were fixed with 4% PFA with 0.05% Triton-X-100 in PBS for 20 min at 4° C. Fixed cells were blocked with 5% (vol/vol) goat serum in PBS for 1 h at 4° C., and incubated with anti-Ki-67 antibody (SP6, rabbit IgG, Cat #CRM325B, Biocare Medical, diluted to 1:50) in PBS for 1 h at 4° C. Cells were washed 3× with chilled PBS, and incubated with Alexa Fluor #488-goat anti-rabbit IgG (Cat #A27034, Thermo Fisher Scientific) at 1:400 in PBS for 1 h at 4° C. in the dark. Cells were washed 3× with chilled PBS, and stained with DAPI (diluted to 0.1 mM) in PBS for 10 min at RT, and analyzed using a microscope (AMG EVOS FL digital inverted microscope, Fisher Scientific, ×400 magnification). For inhibition assay, anti-Tn CICs was preincubated with 100 mM α-methylGalNAc, or α-methylGlcNAc in PBS for 30 min at RT. Serum from three healthy controls (C3, C6, and pooled C1-C10; Cmix) and three IgAN (P5, P10, and pooled P1-P10; Pmix) were used in this assay. […] of serum with IgAN (P1-P20) or healthy control (C1-C20) was analyzed on SDS-PAGE gel, and stained with Coomassie.

**Q.** `CO[C@H]1O[C@H](CO)[C@H](O)[C@H](O)[C@H]1NC(C)=O` [α-methylGalNAc] was tested. Which “inhibition of proliferative activity of anti-Tn CICs from IgAN patients toward mesangial cells” value (anti-Tn CICs purified from IgAN patients pretreated with 100 mM compound) did it give?
**A.** inhibits their proliferative activity toward mesangial cells; also recorded: failed to stimulate human renal mesangial cells

**Q.** And the “inhibition of proliferative activity of anti-Tn CICs from healthy control sera toward mesangial cells” value (anti-Tn CICs purified from healthy control pretreated with 100 mM compound)?
**A.** did not significantly inhibit mesangial cell proliferation
